Data: publication PMC10379010, “Short Peptides of Innate Immunity Protein Tag7 (PGLYRP1) Selectively Induce Inhibition or Activation of Tumor Cell Death via TNF Receptor” (International Journal of Molecular Sciences, 2023)
Where a SMILES comes first, the peptide text is derived from it.

Key:
Hsp70 = target: T1, Hsp70 (Homo sapiens, UniProt P0DMV8); test: Microscale thermophoresis, binding to labeled Hsp70; settings: labeled Hsp70 200 nM, 16 ligand concentrations, 20 min, room temperature, triplicate, average ± SD, read-out: Apparent dissociation constant (Kd) with Hsp70
T1 construct: made in house
T1 sequence (P0DMV8 whole entry): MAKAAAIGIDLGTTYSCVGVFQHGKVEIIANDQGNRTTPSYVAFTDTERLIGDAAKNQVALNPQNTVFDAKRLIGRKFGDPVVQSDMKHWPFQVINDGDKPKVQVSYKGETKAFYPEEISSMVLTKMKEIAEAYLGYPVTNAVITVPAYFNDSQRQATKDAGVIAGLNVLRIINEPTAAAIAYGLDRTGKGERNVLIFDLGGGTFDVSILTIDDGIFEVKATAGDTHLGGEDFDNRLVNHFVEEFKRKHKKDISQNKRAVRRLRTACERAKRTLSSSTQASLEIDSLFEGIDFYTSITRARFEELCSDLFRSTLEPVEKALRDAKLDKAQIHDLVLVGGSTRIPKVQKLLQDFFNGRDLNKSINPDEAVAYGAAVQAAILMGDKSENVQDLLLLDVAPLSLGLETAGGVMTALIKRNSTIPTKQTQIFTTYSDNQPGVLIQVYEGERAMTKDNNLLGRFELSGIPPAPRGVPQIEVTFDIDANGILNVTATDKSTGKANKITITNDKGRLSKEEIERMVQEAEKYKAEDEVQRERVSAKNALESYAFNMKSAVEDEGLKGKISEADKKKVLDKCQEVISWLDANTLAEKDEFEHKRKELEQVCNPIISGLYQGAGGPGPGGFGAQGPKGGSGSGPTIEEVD
Text: (§1) Protein–protein interactions of sTNFR1 and Hsp70 with the peptides 17.1, 17.1A and 17.1B and the Tag7 protein were quantified using microscale thermophoresis (MST). This biophysical method is based on the movement of molecules in a temperature gradient, which strongly depends on the charge, the hydration shell and the size of the moving molecules. At least one of these qualities usually changes during the formation of the complex. Therefore, thermophoresis provides a sensitive and reliable method for analyzing and quantifying protein–protein interactions. […] The obtained constants indicate a highly specific interaction of Tag7, 17.1 and 17.1A with sTNFR1. Similarly, clear changes in the thermophoretic signal were observed when Tag7, 17.1 and 17.1B were added to the labeled Hsp70. […]
(§2) The purified sTNFR1 and Hsp70 were fluorescently labeled using the Alexa Fluor 633 or Alexa Fluor 488 staining kit (Eugene, OR, USA) in accordance with the manufacturer’s instructions. sTNFR1 and Hsp70 (200 nM) were incubated for 20 min with each compound in the dark at room temperature at 16 different concentrations obtained by sequential dilution, starting from the highest soluble concentration. The samples were loaded into glass capillaries (Monolith NT Capillaries) and analyzed by thermophoresis using Nano-Temperature Monolith NT 115 apparatus (IR laser power 10%). […]

[1] = test system: K562 cells (killed by cytotoxic CD4+-T lymphocytes); test: Inhibition of the cytotoxic activity of CD4+-T lymphocytes; format: cell-based; settings: K562 cells preincubated with peptide 30 min (1 nM), then cytotoxic lymphocytes, ratio 1:20, 24 h; Cytotox 96; n = 5
Procedure: Figure 5 (a) The peptides were biotinylated and added to cells of the K562 line, followed by incubation for 1 h. Next, the peptides were cross-linked with Hsp70 on the cell surface with BS^3 reagent (Sigma-Aldrich, St. Louis, MO, USA). After stopping the reaction, the cells were lysed in RIP-A (Sigma-Aldrich, St. Louis, MO, USA) buffer in the presence of protease inhibitors. The lysate was purified by magnetic separation on M280 Streptavidin Beads. The obtained fractions containing 17.1A-Hsp70 and 17.1B-Hsp70 were analyzed using 12% SDS-PAGE electrophoresis and Western blot. Complexes were detected using primary antibodies abHsp70 poly-AT and secondary antibodies anti-rabbit peroxidase-linked (ECL). (b) Tumor cells of the K562 line were preincubated with peptides 17.1, 17.1A and 17.1B for 30 min., and then cytotoxic lymphocytes were added and cytotoxic activity was determined (24 h incubation), n = 5 for each point, (* p-value < 0.05). […]
For the cytotoxicity tests, target cells were cultured in 96-well plates (6 × 10^4 cells per well) and mixed with lymphocytes at a ratio of 1:20. The cytotoxicity was measured after 24 h of incubation. […] The cytotoxic activity of the lymphocytes was determined using the Cytotox 96 analysis kit (Promega, Madison, WI, USA) in accordance with the manufacturer’s protocol.

sTNFR1 = target: T2, sTNFR1 (Homo sapiens, UniProt P19438); test: Microscale thermophoresis, binding to labeled sTNFR1; settings: labeled sTNFR1 200 nM, 16 ligand concentrations, 20 min, room temperature, triplicate, average ± SD, read-out: Apparent dissociation constant (Kd) with sTNFR1
T2 construct: the soluble extracellular domain of its receptor (sTNFR1); made in house
T2 sequence (P19438 30-211 limits assumed): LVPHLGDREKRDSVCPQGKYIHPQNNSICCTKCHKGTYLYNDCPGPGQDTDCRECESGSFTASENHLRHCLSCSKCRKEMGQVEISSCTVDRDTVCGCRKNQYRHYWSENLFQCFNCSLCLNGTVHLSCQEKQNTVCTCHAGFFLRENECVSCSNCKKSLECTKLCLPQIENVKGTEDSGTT
Text: as §1, §2

[2] = test system: L929 cells (TNFR1-induced cytotoxicity); test: Inhibition of TNFR1-dependent cytotoxicity, L929 cells; format: cell-based, mouse; settings: 24 h, peptide added 30 min before TNF (1 nM), only at peptide concentration of 100 nM, n = 5
Procedure: Figure 2 Cells (HL-60 (a–d) or L-929 (e,f)) were preincubated with peptide 17.1A (a,b) or 17.1B (c–f) for 30 min, and then a cytotoxic agent (TNF, Tag7-Hsp70 complex or autoantibodies) was added and cytotoxic activity was then determined after 3 (a,c,e) or 24 h (b,d,f) of cell incubation. n = 5 for each group). (* p-value < 0.05).
(L929 cells, 24 h of incubation, peptides were added 30 min before incubation with TNF (1 nM)) n = 5 for each point.
For the cytotoxicity tests, target cells were cultured in 96-well plates (6 × 10^4 cells per well) and mixed with lymphocytes at a ratio of 1:20. The cytotoxicity was measured after 24 h of incubation. The inhibition test was performed with peptides 17.1, 17.1A and 17.1B at a concentration of 1 nM. The cytotoxic activity of the lymphocytes was determined using the Cytotox 96 analysis kit (Promega, Madison, WI, USA) in accordance with the manufacturer’s protocol.

| Kd (Hsp70) [nM] | Kd (sTNFR1) [nM] | SMILES | Effect on the cytotoxic activity of CD4+-T lymphocytes [1] | Inhibitory effect on TNF cytotoxic activity at 100 nM [2] |
| --- | --- | --- | --- | --- |
| 222 ± 15 | – | CC(C)[C@H](NC(=O)[C@H](CC(=O)O)NC(=O)[C@H](CCCNC(=N)N)NC(=O)[C@@H](N)Cc1c[nH]cn1)C(=O)N[C@@H](CCC(N)=O)C(=O)N[C@@H](CCCNC(=N)N)C(=O)N[C@H](C(=O)O)[C@@H](C)O [17.1A, HRDVQRT] (H-HRDVQRT-OH) | no effect on cell death | – |
| 3.15 ± 0.7 | 6690 ± 120 | CC(C)C[C@H](NC(=O)[C@@H](NC(=O)[C@H](Cc1ccc(O)cc1)NC(=O)[C@H](CC(N)=O)NC(=O)[C@H](CO)NC(=O)[C@@H](N)CCCNC(=N)N)C(C)C)C(=O)N[C@@H](CCCCN)C(=O)NCC(=O)O [17.1B, RSNYVLKG] (H-RSNYVLKG-OH) | completely block the cytotoxic effect of lymphocytes | weak inhibitory effect |
